# From patent US20220098197A1, “SALTS OF HETEROCYCLIC COMPOUND AND USE THEREOF” (priority 2019, published 2022)
# “And” between values parts separate entries of the source, which are not always exact repeats. Identical values can stand only once. Like-named read-outs stand apart in the source and are kept apart here.
# Tests used:
# Format in all cases: physicochemical
# [1] = Dissolution test of capsules (Chinese Pharmacopoeia 2015, General Method 0931, 2nd Method); settings: for Dissolution rate, Mean (%), 5 min / Dissolution rate, Mean (%), 10 min / Dissolution rate, Mean (%), 15 min / Dissolution rate, Mean (%), 20 min / Dissolution rate, Mean (%), 30 min / Dissolution rate, Mean (%), 45 min: mean of 6 capsules; for Dissolution rate, Mean (%), 5 min / Dissolution rate, Mean (%), 10 min / Dissolution rate, Mean (%), 15 min / Dissolution rate, Mean (%), 20 min / Dissolution rate, Mean (%), 30 min / Dissolution rate, Mean (%), 45 min / Dissolution rate, 5 min / Dissolution rate, 10 min / Dissolution rate, 15 min / Dissolution rate, 20 min / Dissolution rate, 30 min / Dissolution rate, 45 min: purified water, 50 rpm; for Dissolution rate, 5 min / Dissolution rate, 10 min / Dissolution rate, 15 min / Dissolution rate, 20 min / Dissolution rate, 30 min / Dissolution rate, 45 min: single capsules 1-6, hydrate
# Method: The hydrates obtained hereinabove and the compound of formula A were tested for dissolution rate. The test method was as follows.
# Step 1: Pretreating Raw Materials
# The samples were passed through a 100 mesh sieve.
# Step 2: Blending Raw Materials with Auxiliary Materials
# The raw materials and lactose were weighed according to the prescription, mixed in equal increment, sieved and mixed.
# The capsules were filled via a capsule filling plate and sealed. The difference of the filling amount was controlled to ±5%. The appearance was inspected to ensure that the sealing was correct and there was no split or deformation.
# Test method: dissolution test method (Chinese Pharmacopoeia, edited in 2015, Chapter 4, General Method 0931, the 2nd Method)
# Dissolution medium: aqueous solution
# Specific test method: The sample was tested following the dissolution test method (Chinese Pharmacopoeia, edited in 2015, Chapter 4, General Method 0931, the 2nd Method). 900 ml aqueous solution was used as the dissolution medium. The speed was 50 rpm. The test was performed in accordance with the method. […] After filtration, the filtrate was precisely measured and quantitatively diluted with the dissolution medium to prepare a solution containing about 10 μg of sample per 1 ml. The absorbance was measured by at 231 nm by UV-Vis spectrophotometry (Chinese Pharmacopoeia, edited in 2015, Chapter 4, General Method 0931, the 2nd Method). An appropriate amount of the control sample was taken, weighed accurately, dissolved in dissolution medium and diluted quantitatively to prepare a solution containing about 10 μg of the sample per 1 ml, and then measured in the same way. The amount of dissolution per capsule was calculated.
# [2] = Stability test (influencing factors: light, high temperature, high humidity); settings: for stability under high temperature and high humidity conditions (in words): 60° C., 92.5% RH
# Method: Test process: An appropriate amount of each test sample was placed on a clean watch glass without a lid and then placed under the conditions of light 4500 lx±500 lx, high temperature of 60° C., high humidity of 92.5% RH for 5 days and 10 days, respectively. The properties and related substances were determined and the results were compared with the results at day 0 to observe the stability.
# The test method for related substances was as follows.
# Preparation of test sample solution: About 10 mg of each test sample was placed in a 10 ml volumetric flask, and 50% acetonitrile aqueous solution was added to dissolve sample, and diluted to the mark, shaken well, and filtered to obtain the test sample solution. A precise amount of 10 μl of the test sample solution was taken and injected according to the above chromatographic method, and the maximum single impurity and total impurity were calculated according to the area normalization method.
# [3] = Solubility test in media with different pH; settings: for solubility: thermodynamic from solid, room temperature of 25° C.
# Method: The hydrates obtained as above and the compound of formula A were tested for solubility in solutions with different pH. The test method was as follows.
# 1.1. Preparation of the Media with Different pH
# pH1.0 medium: 9.0 mL of hydrochloric acid was diluted to 1000 mL with water and shaken well to obtain the medium.
# pH4.5 medium: 6.80 g of potassium dihydrogen phosphate (KH2PO4) was dissolved in water and diluted to 1000 mL, adjusted to pH4.5 with phosphoric acid or sodium hydroxide, and shaken well to obtain the medium.
# pH6.8 medium: 55.38 g of disodium hydrogen phosphate (Na2HPO4.12H2O) and 4.77 g of citric acid (C6H8O7.H2O) were dissolved in water and diluted to 1000 mL, adjusted to pH6.8 with phosphoric acid or sodium hydroxide, and shaken well to obtain the medium.
# Pure water medium: purified water.
# Test method: To a certain amount of test samples, the media with different pH were added gradually, respectively. The mixture was shaken continuously until it reached saturation. The weighing amount of the test sample and the amount of solvent were recorded and the concentration when the sample was dissolved was calculated.
# [4] = high temperature 60° C., Day 10
# [5] = light condition 4500 lx±500 lx, Day 5
# [6] = light condition 4500 lx±500 lx, Day 10
SMILES,stability under high temperature and high humidity conditions (in words) ([2]; 5 and 10 days),maximum single impurity % ([2]; Day 0),property ([2]; Day 0),total impurity % ([2]; Day 0),"maximum single impurity % ([2]; high humidity 92.5% RH, Day 5)","property ([2]; high humidity 92.5% RH, Day 5)","total impurity % ([2]; high humidity 92.5% RH, Day 5)","maximum single impurity % ([2]; high humidity 92.5% RH, Day 10)","property ([2]; high humidity 92.5% RH, Day 10)","total impurity % ([2]; high humidity 92.5% RH, Day 10)","maximum single impurity % ([2]; high temperature 60° C., Day 5)","property ([2]; high temperature 60° C., Day 5)","total impurity % ([2]; high temperature 60° C., Day 5)","maximum single impurity % [2, 4]","property [2, 4]","total impurity % [2, 4]","maximum single impurity % [2, 5]","property [2, 5]","total impurity % [2, 5]","maximum single impurity % [2, 6]",further results
CN([C@@H]1CCc2c(CC(=O)[O-])c3cccnc3n2C1)S(=O)(=O)c1ccc(F)cc1.[Li+] [Lithium salt hydrate],relatively stable,0.59%,white powder,0.87%,0.55%,white powder,0.72%,0.56%,white powder,0.76%,0.56%,white powder,0.79%,0.56%,white powder,0.78%,0.61%,light yellow powder,0.93%,0.78%,"Dissolution rate, Mean (%), 5 min [1]: 34.6%; Dissolution rate, Mean (%), 10 min [1]: 67.4%; Dissolution rate, Mean (%), 15 min [1]: 79.8%; Dissolution rate, Mean (%), 20 min [1]: 85.3%; Dissolution rate, Mean (%), 30 min [1]: 85.2%; Dissolution rate, Mean (%), 45 min [1]: 85.7%; Dissolution rate, 5 min [1]: 36.5% and 42.6% and 34.7% and 34.4% and 35.6% and 23.9%; Dissolution rate, 10 min [1]: 78.7% and 75.4% and 74.4% and 60.4% and 74.8% and 40.4%; Dissolution rate, 15 min [1]: 83.6% and 82.7% and 83.4% and 81.4% and 81.3% and 66.1%; Dissolution rate, 20 min [1]: 84.3% and 87% and 85.9% and 84.9% and 85.5% and 84.4%; Dissolution rate, 30 min [1]: 85.9% and 85.2% and 85.8% and 84.6% and 84.4% and 85.3%; Dissolution rate, 45 min [1]: 85.5% and 85.6% and 88.3% and 84.2% and 85.3%; property [2, 6]: light yellow powder; total impurity % [2, 6]: 1.21%"
CN([C@@H]1CCc2c(CC(=O)O)c3cccnc3n2C1)S(=O)(=O)c1ccc(F)cc1 (racemic) [Compound A],relatively stable,0.08%,white powder,0.32%,0.08%,white powder,0.31%,0.07%,white powder,0.26%,0.07%,white powder,0.24%,0.08%,white powder,0.25%,4.66%,light yellow powder,5.28%,15.02%,"dissolution rate (in words) ([1]; same method, aqueous dissolution medium): basically zero; water solubility at different pH (comparison in words) ([3]; pH 1.0, 4.5, 6.8 and purified water): poor water solubility; solubility ([3]; pH 1.0 medium (dilute hydrochloric acid), pH 1, simulated gastric fluid, pH1.0 medium, read-out: Solubility, pH = 1.0): 1.25 µg/mL; solubility ([3]; pH 4.5 medium (potassium dihydrogen phosphate solution), pH 4.5, aqueous buffer, pH4.5 medium, read-out: Solubility, pH = 4.5): 1.67 µg/mL; solubility ([3]; pH 6.8, aqueous buffer, pH6.8 medium, read-out: Solubility, pH = 6.8): 2 µg/mL; solubility ([3]; purified water, read-out: Solubility, purified water): 2 µg/mL; solubility in water (in words) ([3]; water): insoluble in water; stability under light condition (in words) ([2]; light 4500 lx±500 lx, 5 and 10 days): degrades significantly; property [2, 6]: light yellow powder; total impurity % [2, 6]: 15.25%"
CN([C@@H]1CCc2c(CC(=O)[O-])c3cccnc3n2C1)S(=O)(=O)c1ccc(F)cc1.[K+] [Potassium salt hydrate],relatively stable,0.34%,white powder,0.49%,0.34%,Molten solid,0.45%,0.31%,colorless liquid,0.48%,0.34%,white powder,0.45%,0.33%,white powder,0.45%,0.33%,light yellow powder,0.72%,0.33%,"Dissolution rate, Mean (%), 5 min [1]: 31.6%; Dissolution rate, Mean (%), 10 min [1]: 74.1%; Dissolution rate, Mean (%), 15 min [1]: 83.0%; Dissolution rate, Mean (%), 20 min [1]: 85.6%; Dissolution rate, Mean (%), 30 min [1]: 87.0%; Dissolution rate, Mean (%), 45 min [1]: 86.9%; Dissolution rate, 5 min [1]: 30.7% and 28.9% and 24.1% and 34.9% and 41.7% and 29.6%; Dissolution rate, 10 min [1]: 80.4% and 53.3% and 81.5% and 72.3% and 77.6% and 79.2%; Dissolution rate, 15 min [1]: 83.7% and 80.8% and 87.4% and 84.4% and 79.5% and 82.1%; Dissolution rate, 20 min [1]: 86.4% and 83.1% and 89.2% and 87.8% and 83.0% and 84.1%; Dissolution rate, 30 min [1]: 86.9% and 86.7% and 90.2% and 87.4% and 85.0% and 85.6%; Dissolution rate, 45 min [1]: 85.6% and 86.7% and 91.3% and 87.0% and 85.8% and 84.9%; property [2, 6]: light yellow powder; total impurity % [2, 6]: 0.88%"
